This passage reports MIC and Activity results from ChEMBL document CHEMBL3244240, “Antitubercular 2,8-bis(alkylaminomethyl)phenazines” (1978).

Structures are written as SMILES. Converted amounts (≈) assume the structure as drawn. The source made the active and inactive calls. The calls are words filed in the database; no cut-off is given here.

Assay [1] relates to Mycolicibacterium smegmatis. Kind of assay: Antitubercular against Mycobacterium smegmatis ATCC 607 by agar dilution method. Type of assay: functional.
In assay [2] the test system is Mycobacterium tuberculosis. Kind of assay: Antitubercular against Mycobacterium tuberculosis H37Rv infected in mouse assessed as host survival at 2.5 mg/kg/day administered with food for 19 days measured on day 30. Type of assay: functional, organism-based.
For assay [3], the system named is Mycobacterium tuberculosis. Kind of assay: Antitubercular against Mycobacterium tuberculosis H37Rv infected in mouse assessed as host survival at 9 mg/kg/day administered with food for 19 days measured on day 30. Type of assay: functional, organism-based.
In assay [4] the test system is Mycobacterium tuberculosis. In words: Antitubercular against Mycobacterium tuberculosis H37Rv infected in mouse assessed as host survival at 75 mg/kg/day administered with food for 19 days measured on day 30. In kind it is functional, organism-based.
The subject of assay [5] is Mycobacterium tuberculosis. Kind of assay: Antitubercular against Mycobacterium tuberculosis H37Rv infected in mouse assessed as host survival at 19 mg/kg/day administered with food for 19 days measured on day 30. In kind it is functional, organism-based.
The subject of assay [6] is Mycobacterium tuberculosis. In words: Antitubercular against Mycobacterium tuberculosis H37Rv infected in mouse assessed as host survival at 5 mg/kg/day administered with food for 19 days measured on day 30. In kind it is functional, organism-based.

Compound `CC1CN(Cc2ccc3nc4ccc(CN5CC(C)NC(C)C5)cc4nc3c2)CC(C)N1.Cl` (stereo not drawn) yielded an MIC in assay [1] of 62 mg/L.

Compound `CCN(CC)Cc1ccc2nc3ccc(CN(CC)CC)cc3nc2c1.Cl` displayed an MIC in assay [1] of 5 mg/L.

As for `CN1CCN(Cc2ccc3nc4ccc(CN5CCN(C)CC5)cc4nc3c2)CC1`, in assay [1], the minimal inhibitory concentration (MIC) worked out at 62 mg/L (≈ 153 µM).

With `CC[C@@H](CO)NCCN[C@@H](CC)CO` [ETHAMBUTOL], the minimal inhibitory concentration (MIC) in assay [1] is 0.5 mg/L (≈ 2.45 µM).

The compound `CCCCCCN(CCCCCC)Cc1ccc2nc3ccc(CN(CCCCCC)CCCCCC)cc3nc2c1` returned an MIC in assay [1] of 62 mg/L (≈ 108 µM).

Turning to `CCCCCN(CCCCC)Cc1ccc2nc3ccc(CN(CCCCC)CCCCC)cc3nc2c1`, the MIC in assay [1] worked out at 62 mg/L (≈ 119 µM).

`CCCCCCCCN(CCCCCCCC)Cc1ccc2nc3ccc(CN(CCCCCCCC)CCCCCCCC)cc3nc2c1`: in assay [1], the MIC worked out at 62 mg/L (≈ 90.2 µM).

In assay [1], `CCCCCCCN(CCCCCCC)Cc1ccc2nc3ccc(CN(CCCCCCC)CCCCCCC)cc3nc2c1` returned a minimum inhibitory concentration (MIC) of 62 mg/L (≈ 98.2 µM).

In assay [1], `Cl.c1ccc(CN2CCN(Cc3ccc4nc5ccc(CN6CCN(Cc7ccccc7)CC6)cc5nc4c3)CC2)cc1` registered an MIC of 10 mg/L. Against the preceding compound, the MIC is about 6.2-fold lower.

Regarding `c1cc2nc3ccc(CN4CCCCC4)cc3nc2cc1CN1CCCCC1`, in assay [1], the lowest concentration to inhibit growth (MIC) was 62 mg/L (≈ 166 µM).

In assay [1], `NNC(=O)c1ccncc1` [ISONIAZID] showed an MIC of 0.05 mg/L (≈ 0.365 µM). Moreover, in assay [2], the outcome was inactive. Also, in assay [3], the result was Active.

As for `Cl.c1ccc(N2CCN(Cc3ccc4nc5ccc(CN6CCN(c7ccccn7)CC6)cc5nc4c3)CC2)nc1`, the MIC in assay [1] worked out at 125 mg/L.

`CCCCN(CCCC)Cc1ccc2nc3ccc(CN(CCCC)CCCC)cc3nc2c1.Cl`: the MIC in assay [1] stood at 2.5 mg/L. In addition, the outcome in assay [4] was Active. The result in assay [5] and in assay [6] was inactive.

In general, MIC refers to the least concentration at which growth counts as inhibited. A low value points to inhibition by little substance.
